Values quoted from earlier work, collected in publication PMC10140125 (Investigational New Drugs, 2023).

System: recurrent malignant gliomas
Set-up: method as in PMID 20458050, PMID 20200024
Settings: phase II studies, recurrent malignant gliomas ref 4, 22

Structure (SMILES) | ORR [%]
COc1cc2c(Oc3ccc4[nH]c(C)cc4c3F)ncnc2cc1OCCCN1CCCC1 [cediranib] | 56.7
Cc1ccc(Nc2nccc(N(C)c3ccc4c(C)n(C)nc4c3)n2)cc1S(N)(=O)=O [pazopanib] | 5.9
